Measured values as given in the supplement of paper PMC10307832.

Columns and labels:
Assay in all cases: relative viability (nuclei count vs DMSO), 5 days (fraction); higher = more cells survive
Calu-6 = tested on: Calu-6
Procedure, shortened: (§1)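 Values are medians from duplicate plates. Each reflects relative viability, defined as the nuclei count of treated wells over that of vehicle wells. Lung cancer cell lines in 1536-well plates were pin-tool dosed one day after seeding with one drug alone or with a fixed anchor-drug dose plus five library-drug doses (not always all listed) in √10 steps, then fixed, stained and imaged at 4× after 5 days.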

NCI-H1623 = tested on: NCI-H1623
Procedure, shortened: as §1

NCI-H2342 = tested on: NCI-H2342
Procedure, shortened: as §1

EBC-1 = tested on: EBC-1
Procedure, shortened: as §1

IA-LM = tested on: IA-LM
Procedure, shortened: as §1

A549 = tested on: A549
Procedure, shortened: as §1

NCI-H1703 = tested on: NCI-H1703
Procedure, shortened: as §1

NCI-H1563 = tested on: NCI-H1563
Procedure, shortened: as §1

NCI-H1299 = tested on: NCI-H1299
Procedure, shortened: as §1

SW 900 = tested on: SW 900
Procedure, shortened: as §1

NCI-H1648 = tested on: NCI-H1648
Procedure, shortened: as §1

NCI-H522 = tested on: NCI-H522
Procedure, shortened: as §1

Work on `O=c1[nH]c2ccccc2n1C1CCN(CCCC(c2ccc(F)cc2)c2ccc(F)cc2)CC1` [Pimozide] + COc1cc2c(Oc3ccc(NC(=O)C4(C(=O)Nc5ccc(F)cc5)CC4)cc3F)ccnc2cc1OCCCN1CCOCC1 [Foretinib] (partner 0.25 µM) yielded a relative viability (Calu-6; first compound 0.08 µM) of 0.887, a relative viability (Calu-6; first compound 0.253 µM) of 0.925 and a relative viability (Calu-6; first compound 0.8 µM) of 0.819. It also gave a relative viability (Calu-6; first compound 2.53 µM) of 0.914, a relative viability (Calu-6; first compound 8 µM) of 0.822 and a relative viability (NCI-H1623; first compound 0.08 µM) of 0.505. It also gave a relative viability (NCI-H1623; first compound 0.253 µM) of 0.879, a relative viability (NCI-H1623; first compound 0.8 µM) of 0.81 and a relative viability (NCI-H1623; first compound 2.53 µM) of 0.88. The relative viability (NCI-H1623; first compound 8 µM) was 0.889, the relative viability (NCI-H2342; first compound 0.08 µM) was 0.92 and the relative viability (NCI-H2342; first compound 0.253 µM) was 0.973. For the same compound, the relative viability (NCI-H2342; first compound 0.8 µM) was 0.931, the relative viability (NCI-H2342; first compound 2.53 µM) was 0.975 and the relative viability (NCI-H2342; first compound 8 µM) was 1.07. It also gave a relative viability (EBC-1; first compound 0.08 µM) of 0.0944, a relative viability (EBC-1; first compound 0.253 µM) of 0.102 and a relative viability (EBC-1; first compound 0.8 µM) of 0.0973. The relative viability (EBC-1; first compound 2.53 µM) was 0.104, the relative viability (EBC-1; first compound 8 µM) was 0.12 and the relative viability (IA-LM; first compound 0.08 µM) was 1.16. The relative viability (IA-LM; first compound 0.253 µM) was 1.15, the relative viability (IA-LM; first compound 0.8 µM) was 1.16 and the relative viability (IA-LM; first compound 2.53 µM) was 1.19. The relative viability (IA-LM; first compound 8 µM) was 1.17, the relative viability (A549; first compound 0.08 µM) was 0.891 and the relative viability (A549; first compound 0.253 µM) was 0.988. It also gave a relative viability (A549; first compound 0.8 µM) of 1.04, a relative viability (A549; first compound 2.53 µM) of 0.949 and a relative viability (A549; first compound 8 µM) of 0.728. The relative viability (NCI-H1703; first compound 0.08 µM) was 0.394, the relative viability (NCI-H1703; first compound 0.253 µM) was 0.272 and the relative viability (NCI-H1703; first compound 0.8 µM) was 0.375. It also gave a relative viability (NCI-H1703; first compound 2.53 µM) of 0.37, a relative viability (NCI-H1703; first compound 8 µM) of 0.336 and a relative viability (NCI-H1563; first compound 0.08 µM) of 0.969. It also gave a relative viability (NCI-H1563; first compound 0.253 µM) of 0.849, a relative viability (NCI-H1563; first compound 0.8 µM) of 0.832 and a relative viability (NCI-H1563; first compound 2.53 µM) of 0.877. The relative viability (NCI-H1563; first compound 8 µM) was 0.832, the relative viability (NCI-H1299; first compound 0.08 µM) was 1.11 and the relative viability (NCI-H1299; first compound 0.253 µM) was 1.12. For the same compound, the relative viability (NCI-H1299; first compound 0.8 µM) was 1.07, the relative viability (NCI-H1299; first compound 2.53 µM) was 1.07 and the relative viability (NCI-H1299; first compound 8 µM) was 1.04. For the same compound, the relative viability (SW 900; first compound 0.08 µM) was 0.877, the relative viability (SW 900; first compound 0.253 µM) was 0.956 and the relative viability (SW 900; first compound 0.8 µM) was 0.668. For the same compound, the relative viability (SW 900; first compound 2.53 µM) was 0.746 and the relative viability (SW 900; first compound 8 µM) was 1.03.
`O=c1[nH]c2ccccc2n1C1CCN(CCCC(c2ccc(F)cc2)c2ccc(F)cc2)CC1` [Pimozide] + Cc1cc(Nc2cc(N3CCN(C)CC3)nc(Sc3ccc(NC(=O)C4CC4)cc3)n2)n[nH]1 [Tozasertib] (partner 0.1 µM) was tested, and the relative viability (NCI-H1648; first compound 0.08 µM) was 0.574, the relative viability (NCI-H1648; first compound 0.253 µM) was 0.398 and the relative viability (NCI-H1648; first compound 0.8 µM) was 0.353. For the same compound, the relative viability (NCI-H1648; first compound 8 µM) was 0.53, the relative viability (NCI-H1623; first compound 0.253 µM) was 0.439 and the relative viability (NCI-H1623; first compound 0.8 µM) was 0.375. For the same compound, the relative viability (NCI-H1623; first compound 2.53 µM) was 0.456, the relative viability (NCI-H1623; first compound 8 µM) was 0.39 and the relative viability (NCI-H522; first compound 0.08 µM) was 0.509. The relative viability (NCI-H522; first compound 0.253 µM) was 0.47, the relative viability (NCI-H522; first compound 0.8 µM) was 0.573 and the relative viability (NCI-H522; first compound 2.53 µM) was 0.485. It also gave a relative viability (NCI-H522; first compound 8 µM) of 0.525, a relative viability (NCI-H2342; first compound 0.08 µM) of 0.51 and a relative viability (NCI-H2342; first compound 0.253 µM) of 0.517. For the same compound, the relative viability (NCI-H2342; first compound 0.8 µM) was 0.505, the relative viability (NCI-H2342; first compound 2.53 µM) was 0.488 and the relative viability (NCI-H2342; first compound 8 µM) was 0.576. It also gave a relative viability (SW 900; first compound 0.08 µM) of 0.633, a relative viability (SW 900; first compound 0.253 µM) of 0.606 and a relative viability (SW 900; first compound 0.8 µM) of 0.54. The relative viability (SW 900; first compound 2.53 µM) was 0.618 and the relative viability (SW 900; first compound 8 µM) was 0.563.
